GI50 and TGI data for seven compounds are collected here from PubChem BioAssay (NCI).

Test systems include HS 578T breast; HT29 colon; MDA-MB-231 breast; MDA-MB-435; OVCAR-8 ovarian; SN12C renal; SW-620 colon; T-47D breast; TK-10 renal; UACC-62 melanoma.
Common to all, as to test: growth of human tumour cells (NCI), 48 h

Several values for one entry are separate records, joined by “and”; a condition that tells them apart may be missing. Identical values can stand only once.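 These data come from cells grown in 96-well plates and exposed to compound for 48 hours at five concentrations. Abbreviation: GI50, concentration required for 50% inhibition of growth. TGI: total growth inhibition.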 A value given as a limit tells only on which side of the number the result lay.

As to `COc1ccc(-c2nn(-c3cccc(NC(=O)c4cccc(C(F)(F)F)c4)c3)cc2-c2ccncc2)cc1Cl`, the GI50 in the test on HS 578T breast was 1.54 µM; in the test with HT29 colon, 2.92 µM; in the test on MDA-MB-231 breast it was 1.77 µM; with MDA-MB-435, 0.343 µM; in the test on OVCAR-8 ovarian, 3.34 µM; in the test with SN12C renal it was 5.06 µM. The GI50 with SW-620 colon is 4.07 µM; in the test with T-47D breast it was 2.56 µM; in the test with TK-10 renal, 6.77 µM; with UACC-62 melanoma it was 2.27 µM. The TGI with HS 578T breast was 8.74 µM; with HT29 colon, 27.7 µM; with MDA-MB-231 breast, 16.1 µM; in the test on MDA-MB-435, 2.03 µM; in the test on OVCAR-8 ovarian, greater than 100 µM; in the test on SN12C renal it was greater than 100 µM. In addition, the TGI in the test with SW-620 colon was greater than 100 µM; in the test with T-47D breast, greater than 100 µM; in the test with TK-10 renal, greater than 100 µM; in the test with UACC-62 melanoma it was 24 µM.
As to `COc1nc(N)nc2c1ncn2[C@@H]1O[C@H](CO)[C@@H](O)[C@@H]1O`, the GI50 in the test with HS 578T breast, in the test with HT29 colon, in the test with MDA-MB-231 breast, with MDA-MB-435, with OVCAR-8 ovarian and with SN12C renal was greater than 100 µM throughout. Also, the GI50 in the test on SW-620 colon, with T-47D breast, in the test on TK-10 renal and in the test with UACC-62 melanoma was greater than 100 µM throughout. The TGI with HS 578T breast, in the test with HT29 colon, in the test with MDA-MB-231 breast, in the test with MDA-MB-435, with OVCAR-8 ovarian and in the test with SN12C renal was greater than 100 µM throughout. Besides, the TGI in the test with SW-620 colon, with T-47D breast, in the test with TK-10 renal and with UACC-62 melanoma was greater than 100 µM in each case.
For the compound `O=C(NCCNc1nccc(-c2c(-c3ccc(F)cc3)nc3sccn23)n1)c1ccccc1`, the GI50 in the test on HS 578T breast is 20.4 µM; with HT29 colon, 4.31 µM; in the test on MDA-MB-231 breast, 15.2 µM; with MDA-MB-435 it was 2.69 µM; with OVCAR-8 ovarian it was 5.95 µM; with SN12C renal, 6.52 µM. Moreover, the GI50 was 7.44 µM in the test with SW-620 colon, 1.91 µM in the test with T-47D breast, 15.8 µM in the test with TK-10 renal and 4.87 µM in the test with UACC-62 melanoma. The TGI was greater than 100 µM in the test with HS 578T breast; greater than 100 µM in the test on HT29 colon; 67.2 µM in the test on MDA-MB-231 breast; 14 µM in the test on MDA-MB-435; greater than 100 µM with OVCAR-8 ovarian; 48.4 µM in the test with SN12C renal. In addition, the TGI in the test on SW-620 colon is 85.6 µM; in the test with T-47D breast, 20.9 µM; in the test with TK-10 renal, 48.7 µM; in the test on UACC-62 melanoma it was 19.9 µM.
For `O=C1CCC(N2Cc3c(C#CCCCNC(=O)c4cc5c(o4)C(=O)c4ccccc4C5=O)cccc3C2=O)C(=O)N1` (stereo not drawn), the GI50 in the test with HS 578T breast is 2.39 µM; in the test on HT29 colon, 5.92 µM; in the test with MDA-MB-231 breast, 2.92 µM; with MDA-MB-435, 1.81 µM; with OVCAR-8 ovarian, 3.24 µM; in the test on SN12C renal, 1.69 µM. The GI50 is 3.05 µM in the test on SW-620 colon, 3.16 µM with T-47D breast, 33.1 µM with TK-10 renal and 1.87 µM in the test on UACC-62 melanoma. Moreover, the TGI in the test with HS 578T breast is 5.64 µM; in the test with HT29 colon it was 39.9 µM; in the test on MDA-MB-231 breast it was 19.6 µM; with MDA-MB-435 it was 3.27 µM; with OVCAR-8 ovarian it was 87 µM; with SN12C renal, 3.25 µM. Moreover, the TGI with SW-620 colon was 11.4 µM; in the test with T-47D breast, 11.9 µM; with TK-10 renal, 50.2 µM; with UACC-62 melanoma, 3.65 µM.
Take `CSc1nc(C)c(Br)c(=O)n1C1OC(COC(C)=O)C(OC(C)=O)C(OC(C)=O)C1OC(C)=O` (stereo not drawn): the TGI with HS 578T breast, in the test with HT29 colon, with MDA-MB-231 breast, in the test on MDA-MB-435, with OVCAR-8 ovarian and in the test with SN12C renal was greater than 100 µM throughout. The TGI with SW-620 colon was greater than 100 µM; in the test with T-47D breast, greater than 100 µM; with TK-10 renal it was > 100 µM and 55.9 µM; in the test with UACC-62 melanoma, > 100 µM and 44.1 µM. The GI50 is > 100 µM and 36 µM in the test with OVCAR-8 ovarian; 43.1 µM and 20.6 µM in the test on TK-10 renal; 97 µM and 23.3 µM with UACC-62 melanoma.
Consider `O=C(Nc1ccc(OCc2nnc(-c3ccccc3)o2)c(F)c1)Nc1ccc(Cl)c(C(F)(F)F)c1`, for which the GI50 in the test on HS 578T breast was 2 µM; in the test on HT29 colon it was 2.33 µM; in the test on MDA-MB-231 breast it was 2.3 µM; in the test on MDA-MB-435, 2.71 µM; in the test with OVCAR-8 ovarian it was 2.57 µM; in the test on SN12C renal it was 1.91 µM. The GI50 in the test with SW-620 colon is 3.6 µM; in the test on T-47D breast, 2.31 µM; with TK-10 renal, 2.62 µM; with UACC-62 melanoma, 2.48 µM. The TGI in the test with HS 578T breast is 7.09 µM; in the test on HT29 colon it was 9.9 µM; with MDA-MB-231 breast, 6.03 µM; in the test with MDA-MB-435, greater than 100 µM; with OVCAR-8 ovarian it was 11.5 µM; with SN12C renal, 6.23 µM. For the same compound, the TGI with SW-620 colon turned out to be 35.4 µM; with T-47D breast, 7.15 µM; with TK-10 renal, 8.24 µM; in the test with UACC-62 melanoma, 6.91 µM.
Regarding `C/C(=C\CCc1ccsc1)CC/C=C(\C)CCCN1CCC(CO)CC1`, the GI50 in the test with HS 578T breast was 2 µM; with HT29 colon, 1.94 µM; in the test with MDA-MB-231 breast, 1.38 µM; in the test on MDA-MB-435 it was 1.87 µM; with OVCAR-8 ovarian it was 3.02 µM; with SN12C renal, 3.24 µM. Besides, the GI50 is 2.02 µM with SW-620 colon, 2.22 µM in the test with T-47D breast, 1.76 µM in the test on TK-10 renal and 1.81 µM in the test with UACC-62 melanoma. The TGI in the test on HS 578T breast turned out to be 6.19 µM; with HT29 colon, 5.64 µM; with MDA-MB-231 breast it was 2.87 µM; with MDA-MB-435, 3.87 µM; in the test on OVCAR-8 ovarian, 12.8 µM; with SN12C renal it was 14.2 µM. Also, the TGI in the test with SW-620 colon was found to be 4.77 µM; in the test on T-47D breast, 6.03 µM; with TK-10 renal, 3.29 µM; in the test with UACC-62 melanoma, 3.64 µM.
